Assay results from ChEMBL document CHEMBL1201862, “PubChem BioAssay data set” (2004).
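All cell lines were grown in 96-well plates and treated with compound for 48 hours. Abbreviation: GI50, concentration required for 50% inhibition of growth.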 The source made the active and inactive calls. No stated cut-off is given here; in the data, active = GI50 up to about 1.1 µM and inactive = higher.

Legend:
Assay in all cases: DTP human tumour cell line panel, 48 h
COLO 205 = system: COLO 205
HL-60 = system: HL-60
HOP-62 = system: HOP-62
K562 = system: K562
LOX IMVI = system: LOX IMVI
LXFL 529 = system: LXFL 529
M14 = system: M14
Malme-3M = system: Malme-3M
NCI-H226 = system: NCI-H226
NCI-H460 = system: NCI-H460
RPMI-8226 = system: RPMI-8226
RXF 393 = system: RXF 393
SK-MEL-28 = system: SK-MEL-28
SW-620 = system: SW-620
UACC-257 = system: UACC-257
EKVX = system: EKVX

Measured: GI50

c1ccc(C2OCCO2)c(OCCOc2cc(OCCOc3ccccc3C3OCCO3)c(OCCOc3ccccc3C3OCCO3)cc2OCCOc2ccccc2C2OCCO2)c1
inactive: COLO 205 > 100 µM | HL-60 > 100 µM | HOP-62 13.3 µM | K562 > 100 µM | LOX IMVI 49.4 µM | LXFL 529 29.2 µM | M14 26.7 µM | Malme-3M 43.1 µM | NCI-H226 13 µM | NCI-H460 24.3 µM | RPMI-8226 > 100 µM | RXF 393 5.35 µM | SK-MEL-28 > 100 µM | SW-620 81.3 µM | UACC-257 > 100 µM

NC1=NN(c2ccccc2)C(=O)C1C(=O)C(=O)Nc1ccccc1 (centres undefined)
inactive: COLO 205 > 100 µM | EKVX > 100 µM | HL-60 > 100 µM | HOP-62 > 100 µM | K562 > 100 µM | LOX IMVI > 100 µM | LXFL 529 > 100 µM | M14 > 100 µM | Malme-3M > 100 µM | NCI-H226 > 100 µM | NCI-H460 > 100 µM | RPMI-8226 > 100 µM | SW-620 > 100 µM | UACC-257 > 100 µM

ClC(Cl)[Si]12OCCN(CCO1)CCO2
inactive: COLO 205 > 100 µM | HL-60 > 100 µM | K562 > 100 µM | LXFL 529 > 100 µM | Malme-3M > 100 µM | NCI-H460 > 100 µM | RPMI-8226 > 100 µM | RXF 393 > 100 µM | SK-MEL-28 > 100 µM | SW-620 > 100 µM | UACC-257 > 100 µM

Cc1cc2ncn(-c3nc4ccccc4nc3C(C#N)S(C)(=O)=O)c2cc1C (centres undefined)
inactive: COLO 205 > 100 µM | EKVX > 100 µM | HL-60 > 100 µM | HOP-62 > 100 µM | K562 > 100 µM | LOX IMVI > 100 µM | LXFL 529 > 100 µM | M14 > 100 µM | Malme-3M > 100 µM | NCI-H226 13.4 µM | NCI-H460 > 100 µM | RPMI-8226 > 100 µM | SK-MEL-28 > 100 µM | SW-620 > 100 µM | UACC-257 > 100 µM

O=C(O)/C(=C/c1c(O)ccc2ccccc12)c1csc(-c2nc(/C(=C\c3c(O)ccc4ccccc34)C(=O)O)cs2)n1
inactive: COLO 205 16.4 µM | EKVX 41.2 µM | HL-60 8.45 µM | HOP-62 10 µM | K562 15.8 µM | LOX IMVI 19.8 µM | LXFL 529 13.6 µM | M14 11.7 µM | Malme-3M 1.61 µM | NCI-H226 2.49 µM | NCI-H460 19 µM | RPMI-8226 9.38 µM | RXF 393 3.21 µM | SK-MEL-28 14.4 µM | SW-620 24 µM | UACC-257 14.9 µM

CCN(C1=CC(=O)NC2CCCCN12)c1ccccc1 (centres undefined)
inactive: COLO 205 > 100 µM | EKVX > 100 µM | HOP-62 > 100 µM | K562 > 100 µM | LOX IMVI > 100 µM | LXFL 529 > 100 µM | M14 > 100 µM | Malme-3M > 100 µM | NCI-H460 > 100 µM | RPMI-8226 > 100 µM | RXF 393 > 100 µM | SK-MEL-28 > 100 µM | SW-620 > 100 µM | UACC-257 > 100 µM

O=c1cc[nH]c2ccc3nn[nH]c3c12
inactive: COLO 205 > 100 µM | EKVX > 100 µM | HL-60 > 100 µM | HOP-62 > 100 µM | K562 > 100 µM | LXFL 529 > 100 µM | M14 > 100 µM | Malme-3M > 100 µM | NCI-H460 > 100 µM | RPMI-8226 > 100 µM | RXF 393 > 100 µM | SK-MEL-28 > 100 µM | SW-620 > 100 µM | UACC-257 > 100 µM

COc1ccc(CC#N)c(OCc2ccccc2)c1
inactive: COLO 205 40.4 µM | EKVX 30.7 µM | HL-60 > 10 µM | HOP-62 > 100 µM | K562 58.6 µM | LOX IMVI 43.8 µM | LXFL 529 20.2 µM | M14 35.6 µM | Malme-3M 22 µM | NCI-H226 6.73 µM | NCI-H460 61 µM | RPMI-8226 43.3 µM | SK-MEL-28 23.9 µM | SW-620 31 µM | UACC-257 39.3 µM

CC1=C(C(=O)Nc2c(C)cccc2C)C(c2ccccc2Cl)C(C(=O)Nc2c(C)cccc2C)=C(C)N1
inactive: COLO 205 > 100 µM | EKVX > 100 µM | HL-60 > 100 µM | HOP-62 > 100 µM | K562 > 100 µM | LOX IMVI > 100 µM | LXFL 529 > 100 µM | M14 > 100 µM | Malme-3M > 100 µM | NCI-H226 > 100 µM | NCI-H460 > 100 µM | RPMI-8226 > 100 µM | RXF 393 > 100 µM | SK-MEL-28 > 100 µM | SW-620 > 100 µM | UACC-257 > 100 µM

Cc1ccc(C(=O)c2nnc(C(=O)c3ccc(C)cc3)nn2)cc1
inactive: COLO 205 70.1 µM | EKVX 59.6 µM | HL-60 19.7 µM | HOP-62 39.4 µM | K562 23.3 µM | LOX IMVI 17.6 µM | LXFL 529 53.2 µM | M14 22.2 µM | Malme-3M 65.5 µM | NCI-H226 56 µM | NCI-H460 18.4 µM | RPMI-8226 30.5 µM | SK-MEL-28 51.3 µM | SW-620 20.8 µM | UACC-257 58.3 µM

COc1ccc(NC(=O)C(=O)C2CNC(=O)NC2=O)c(OC)c1 (centres undefined)
inactive: COLO 205 > 100 µM | EKVX > 100 µM | HL-60 > 100 µM | HOP-62 > 100 µM | K562 > 100 µM | LOX IMVI > 100 µM | LXFL 529 > 100 µM | M14 > 100 µM | Malme-3M > 100 µM | NCI-H226 > 100 µM | NCI-H460 > 100 µM | RPMI-8226 > 100 µM | RXF 393 > 100 µM | SK-MEL-28 > 100 µM | SW-620 > 100 µM | UACC-257 > 100 µM

C(=N\CC/N=C/c1cccc2ccccc12)/c1cccc2ccccc12
inactive: COLO 205 > 100 µM | EKVX > 100 µM | K562 > 100 µM | LXFL 529 > 100 µM | Malme-3M > 100 µM | NCI-H226 > 100 µM | NCI-H460 > 100 µM | RPMI-8226 > 100 µM | RXF 393 > 100 µM | SK-MEL-28 > 100 µM | SW-620 > 100 µM | UACC-257 > 100 µM

CCN(CC)CCNC(=O)c1ccc([N+](=O)[O-])cc1OC
inactive: COLO 205 > 100 µM | EKVX > 100 µM | HL-60 > 100 µM | HOP-62 > 100 µM | K562 > 100 µM | LOX IMVI > 100 µM | LXFL 529 > 100 µM | M14 > 100 µM | Malme-3M > 100 µM | NCI-H226 > 100 µM | NCI-H460 > 100 µM | RXF 393 > 100 µM | SK-MEL-28 > 100 µM | SW-620 > 100 µM | UACC-257 > 100 µM

CCOc1ccccc1NC(=O)C1=C(C)NC(C)=C(C(=O)Nc2ccccc2OCC)C1c1ccc([N+](=O)[O-])cc1
inactive: COLO 205 67.9 µM | EKVX 54 µM | HL-60 34.7 µM | HOP-62 > 100 µM | LXFL 529 70.5 µM | M14 89.5 µM | Malme-3M > 100 µM | NCI-H226 21.4 µM | NCI-H460 63.2 µM | RPMI-8226 10 µM | RXF 393 > 100 µM | SK-MEL-28 > 100 µM | SW-620 > 100 µM | UACC-257 31.2 µM

COc1c(OC(C)=O)ccc(/C=C2\N=C(C)OC2=O)c1[N+](=O)[O-]
inactive: COLO 205 > 100 µM | HL-60 > 100 µM | HOP-62 > 100 µM | K562 > 100 µM | LOX IMVI > 100 µM | LXFL 529 > 100 µM | M14 > 100 µM | Malme-3M > 100 µM | NCI-H460 > 100 µM | RPMI-8226 > 100 µM | RXF 393 > 100 µM | SW-620 > 100 µM | UACC-257 > 100 µM

CC(=O)C1=CCC2c3[nH]c4ccccc4c3CCN2C1 (centres undefined)
inactive: COLO 205 > 100 µM | EKVX 67.1 µM | HL-60 45.3 µM | HOP-62 > 100 µM | K562 31 µM | LOX IMVI 58.7 µM | LXFL 529 66.8 µM | M14 > 100 µM | Malme-3M 72.1 µM | NCI-H226 > 100 µM | NCI-H460 45 µM | RXF 393 35.8 µM | SK-MEL-28 > 100 µM | SW-620 > 100 µM | UACC-257 > 100 µM

COc1ccc2[nH]c(=O)cc(C)c2c1[N+](=O)[O-]
inactive: COLO 205 > 100 µM | EKVX 82 µM | HL-60 > 100 µM | HOP-62 > 100 µM | K562 > 100 µM | LOX IMVI > 100 µM | LXFL 529 > 100 µM | M14 > 100 µM | Malme-3M > 100 µM | NCI-H226 > 100 µM | NCI-H460 > 100 µM | RPMI-8226 > 100 µM | RXF 393 > 10 µM | SK-MEL-28 > 100 µM | SW-620 > 100 µM | UACC-257 > 100 µM

C=CCC1OC(C)(C)Oc2ccc(OCOCCOC)cc21 (centres undefined)
inactive: EKVX > 100 µM | HOP-62 > 100 µM | K562 > 100 µM | LOX IMVI > 100 µM | LXFL 529 > 100 µM | M14 > 100 µM | Malme-3M > 100 µM | NCI-H226 > 10 µM | NCI-H460 > 100 µM | RXF 393 > 100 µM | SK-MEL-28 > 100 µM | SW-620 > 100 µM | UACC-257 > 100 µM
